Measurements: patent US10801035B2, “Plants having increased tolerance to herbicides” (BASF SE, priority 2011, dated 2020)

Assays:
Format in all cases: biochemical
[1] = molecular target: T1, Hordeum HPPD variant L320N (Hordeum vulgare, UniProt O48604, A164G/L320N/R146V/R147D/R148G); assay: HPPD activity assay, Hordeum HPPD mutant L320N; conditions: normalized on wildtype
T1 construct: His6; made in house; host or cells: E. coli BL21 (DE3)
Method: (§1) HPPD produces homogentisic acid and CO2 from 4-hydroxyphenylpyruvate (4-HPP) and O2. The activity assay for HPPD is based on the analysis of homogentisic acid by reversed phase HPLC.
(§2) The assay mixture can contain 150 mM potassium phosphate buffer pH 7.0, 50 mM L-ascorbic acid, 1 μM FeSO4 and 7 μg of purified enzyme in a total volume of 1 ml. Inhibitors are dissolved in DMSO (dimethylsulfoxide) to a concentration of 20 mM or 0.5 mM, respectively. From this stock solution serial five-fold dilutions are prepared in DMSO, which are used in the assay. The respective inhibitor solution accounts for 1% of the assay volume. Thus, final inhibitor concentrations range from 200 μM to 2.5 nM or from 5 μM to 63 pM, respectively. After a preincubation of 30 min the reaction is started by adding 4-HPP to a final concentration of 0.1 mM. […]
(§3) Inhibitors are dissolved in DMSO (dimethylsulfoxide) to a concentration of 0.5 mM. […] IC50 values are calculated using non-linear regression.
(§4) Purified, mutant HPPD enzymes are obtained by the methods described above. […] Apparent michaelis constants (Km) and maximal reaction velocities (Vmax) are calculated by non-linear regression with the software GraphPad Prism 5 (GraphPad Software, La Jolla, USA) using a substrate inhibition model. […] Weighted means (by standard error) of Km and […] values are calculated from at least three independent experiments. […]

[2] = molecular target: T2, Hordeum HPPD variant L320Q (Hordeum vulgare, UniProt O48604, A164G/L320Q/R146V/R147D/R148G); assay: HPPD activity assay, Hordeum HPPD mutant L320Q; conditions: normalized on wildtype
T2 construct: His6; made in house; host or cells: E. coli BL21 (DE3)
Method: as §1, §2, §3, §4

[3] = molecular target: T3, Hordeum HPPD (SEQ ID: 1/2) (Hordeum vulgare, UniProt O48604, A164G/R146V/R147D/R148G); assay: HPPD activity assay, wildtype Hordeum HPPD; conditions: for Ki: Cheng-Prusoff from IC50, read-out: Ki (dissociation constant); for TI (tolerance index): not normalized
T3 construct: His6; made in house; host or cells: E. coli BL21 (DE3)
Method: as §1
The assay mixture can contain 150 mM potassium phosphate buffer pH 7.0, 50 mM L-ascorbic acid, 1 μM FeSO4 and 7 μg of purified enzyme in a total volume of 1 ml. Inhibitors are dissolved in DMSO (dimethylsulfoxide) to a concentration of 20 mM or 0.5 mM, respectively. From this stock solution serial five-fold dilutions are prepared in DMSO, which are used in the assay. The respective inhibitor solution accounts for 1% of the assay volume. Thus, final inhibitor concentrations range from 200 μM to 2.5 nM or from 5 μM to 63 pM, respectively. After a preincubation of 30 min the reaction is started by adding 4-HPP to a final concentration of 0.1 mM. The reaction is allowed to proceed for 120 min at room temperature. The reaction is stopped by addition of 100 μl of 4.5 M phosphoric acid.
Activities are normalized by setting the uninhibited enzyme activity to 100%. […] values are calculated using non-linear regression.
The assay mixture can contain 150 mM potassium phosphate buffer pH 7.0, 50 mM L-ascorbic acid, 100 μM Catalase (Sigma-Aldrich), 1 μM FeSO4 and 0.2 units of purified HPPD enzyme in a total volume of 505 μl. 1 unit is defined as the amount of enzyme that is required to produce 1 nmol of HGA per minute at 20° C.
Inhibitors are dissolved in DMSO (dimethylsulfoxide) to a concentration of 0.5 mM. From this stock solution serial five-fold dilutions are prepared in DMSO, which are used in the assay. The respective inhibitor solution accounts for 1% of the assay volume. Thus, final inhibitor concentrations range from 5 μM to 320 pM, respectively. Activities are normalized by setting the uninhibited enzyme activity to 100%. IC50 values are calculated using non-linear regression.
Using methods which are described in the above examples or well known in the art, purified, recombinant wildtype HPPD enzymes are characterized with respect to their kinetic properties and sensitivity towards HPPD inhibiting herbicides. Apparent michaelis constants (Km) and maximal reaction velocities (Vmax) are calculated by non-linear regression with the software GraphPad Prism 5 (GraphPad Software, La Jolla, USA) using a substrate inhibition model. Apparent kcat values are calculated from Vmax assuming 100% purity of the enzyme preparation. Weighted means (by standard error) of Km and […] values are calculated from at least three independent experiments. The Cheng-Prusoff equation for competitive inhibition (Cheng, Y. C.; Prusoff, W. H. Biochem Pharmacol 1973, 22, 3099-3108) is used to calculate dissociation constants (Ki).
Field performance of the HPPD enzyme, which is used as a herbicide tolerance trait may depend not only on its lack of sensitivity towards HPPD inhibiting herbicides but also on its activity. To assess the potential performance of a herbicide tolerance trait a tolerance index (TI) is calculated using the following formula: […]
Easy comparison and ranking of each trait is enabled by normalizing every tolerance index on Hordeum HPPD.

[4] = molecular target: T4, Hordeum HPPD variant L353M, P321R, L320N (Hordeum vulgare, UniProt O48604, L320N/L353M/P321R); assay: HPPD activity assay, Hordeum HPPD mutant L353M, P321R, L320N; conditions: normalized on wildtype
T4 construct: His6; made in house; host or cells: E. coli BL21 (DE3)
Method: as §1, §2, §3, §4

Blepharisma HPPD = assay: HPPD activity assay, Blepharisma HPPD; conditions: normalized on Hordeum HPPD
Method: as §1
as §2, with “volume.” for “volume. Thus, final inhibitor concentrations range from 200 μM to 2.5 nM or from 5 μM to 63 pM, respectively. After a preincubation of 30 min the reaction is started by adding 4-HPP to a final concentration of 0.1 mM.”
(§5) Activities are normalized by setting the uninhibited enzyme activity to 100%. […] values are calculated using non-linear regression. […]
as §3
(§6) Using methods which are described in the above examples or well known in the art, purified, recombinant wildtype HPPD enzymes are characterized with respect to their kinetic properties and sensitivity towards HPPD inhibiting herbicides. Apparent michaelis constants (Km) and maximal reaction velocities (Vmax) are calculated by non-linear regression with the software GraphPad Prism 5 (GraphPad Software, La Jolla, USA) using a substrate inhibition model. […]

Kordia HPPD = assay: HPPD activity assay, Kordia HPPD; conditions: normalized on Hordeum HPPD
Method: as §1
as §2, with “volume.” for “volume. Thus, final inhibitor concentrations range from 200 μM to 2.5 nM or from 5 μM to 63 pM, respectively. After a preincubation of 30 min the reaction is started by adding 4-HPP to a final concentration of 0.1 mM.”
as §5, §3, §6

Lolium HPPD = assay: HPPD activity assay, Lolium HPPD; conditions: normalized on Hordeum HPPD
Method: as §1
as §2, with “volume.” for “volume. Thus, final inhibitor concentrations range from 200 μM to 2.5 nM or from 5 μM to 63 pM, respectively. After a preincubation of 30 min the reaction is started by adding 4-HPP to a final concentration of 0.1 mM.”
as §5, §3, §6

[5] = Hordeum HPPD Wild-type, normalized on wildtype (Table 10)
[6] = Hordeum HPPD, normalized on Hordeum HPPD (Table 7)

T3 sequence (O48604 whole entry R146V/R147D/R148G/A164G): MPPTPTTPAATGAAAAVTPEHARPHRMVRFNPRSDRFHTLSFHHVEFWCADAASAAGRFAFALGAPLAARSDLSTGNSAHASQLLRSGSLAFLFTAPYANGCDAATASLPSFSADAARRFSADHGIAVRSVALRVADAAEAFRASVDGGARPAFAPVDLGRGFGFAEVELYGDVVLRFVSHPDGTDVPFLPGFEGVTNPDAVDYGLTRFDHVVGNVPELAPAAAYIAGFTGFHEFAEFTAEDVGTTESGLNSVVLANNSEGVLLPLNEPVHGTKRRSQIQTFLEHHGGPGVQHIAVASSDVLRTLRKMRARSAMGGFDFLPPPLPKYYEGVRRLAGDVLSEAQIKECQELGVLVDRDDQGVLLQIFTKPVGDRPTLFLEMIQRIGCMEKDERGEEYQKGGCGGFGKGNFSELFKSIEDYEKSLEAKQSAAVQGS
T1 sequence (O48604 whole entry R146V/R147D/R148G/A164G/L320N): as the sequence (O48604 whole entry R146V/R147D/R148G/A164G) above, with L320N counted along it
T2 sequence (O48604 whole entry R146V/R147D/R148G/A164G/L320Q): as the sequence (O48604 whole entry R146V/R147D/R148G/A164G) above, with L320Q counted along it
T4 sequence (O48604 whole entry R146V/R147D/R148G/A164G/L320N/P321R/L353M): as the sequence (O48604 whole entry R146V/R147D/R148G/A164G) above, with L320N, P321R, L353M counted along it

SMILES	Normalized tolerance index (TI) [1]	Normalized tolerance index (TI) [2]	Normalized tolerance index (TI) [3, 5]	Ki ([3]; Hordeum HPPD)	Normalized tolerance index (TI) [3, 6]	TI (tolerance index) ([3]; Hordeum HPPD)	Normalized tolerance index (TI) [4]	Normalized tolerance index (TI) (Blepharisma HPPD)	Normalized tolerance index (TI) (Kordia HPPD)	Normalized tolerance index (TI) (Lolium HPPD)
CC1=NOC(c2c(Cl)ccc(C3=C(O)c4ncccc4N(CC(F)F)S3(=O)=O)c2Cl)C1 (centres unmarked) [Inhibitor 1, 3-[2,4-dichloro-3-(3-methyl-4,5-dihydroisoxazol-5-yl)phenyl]-1-(2,2-difluoroethyl)-2,2-dioxo-pyrido[3,2-c]thiazin-4-ol]	3.3	3.4	1	2.7 nM	1	1.19E−3	2.5	6.3	7.5	6.5
O=S1(=O)C(c2c(Cl)cc(Cl)nc2Cl)=C(O)c2ncccc2N1CC(F)F [Inhibitor 2, 1-(2,2-difluoroethyl)-2,2-dioxo-3-(2,4,6-trichloro-3-pyridyl)pyrido[3,2-c]thiazin-4-ol]	1.7	1.8	1	2.6 nM	1	1.13E−3	3	4.9	12	5.6
